Results from patent publication US10138207B2, “Benzomorphan analogs and the use thereof” (priority 2012, dated 2018).
Where two headings read alike, the source gives them in different places.

Columns and labels:
[1] = target: T1, κ opioid receptor (Homo sapiens, UniProt P41145); test: biochemical; assay type: binding; design: expressed in transfected cells; host or cells: HEK 293 (in-house membrane prep); settings: HEK-293 or CHO cells; bound in μM
[2] = target: T1, κ opioid receptor; test: κ-opioid receptor [35S]GTPγS functional assay, U-2 OS cells; assay type: biochemical; design: expressed in transfected cells; host or cells: U-2 OS (in-house membranes); settings: for Emax: read-out: GTPγS κ Emax
Description: Membranes from recombinant HEK-293 cells, CHO or U-2 OS cells expressing the recombinant human κ opioid receptor (κ) were prepared by lysing cells in ice cold hypotonic buffer (2.5 mM MgCl2, 50 mM HEPES, pH 7.4) (10 mL/10 cm dish) followed by homogenization with a tissue grinder/Teflon pestle. […] Membranes were collected by centrifugation at 30,000×g for 15 min at 4° C. and pellets were resuspended in hypotonic buffer to a final concentration of 1-3 mg/mL. Protein concentrations were determined using the BioRad protein assay reagent with bovine serum albumen as standard. Aliquots of κ receptor membranes were stored at −80° C.
Plates were incubated for 30 min at a temperature of about 25° C. with shaking.

[3] = target: μ-opioid receptor (Homo sapiens, UniProt P35372); test: μ-opioid receptor [35S]GTPγS functional assay, U-2 OS cells; assay type: biochemical; design: expressed in transfected cells; host or cells: U-2 OS; settings: for Emax / GTPγS μ Emax: relative to DAMGO
Chain of μ-opioid receptor (P35372 whole entry, species assumed): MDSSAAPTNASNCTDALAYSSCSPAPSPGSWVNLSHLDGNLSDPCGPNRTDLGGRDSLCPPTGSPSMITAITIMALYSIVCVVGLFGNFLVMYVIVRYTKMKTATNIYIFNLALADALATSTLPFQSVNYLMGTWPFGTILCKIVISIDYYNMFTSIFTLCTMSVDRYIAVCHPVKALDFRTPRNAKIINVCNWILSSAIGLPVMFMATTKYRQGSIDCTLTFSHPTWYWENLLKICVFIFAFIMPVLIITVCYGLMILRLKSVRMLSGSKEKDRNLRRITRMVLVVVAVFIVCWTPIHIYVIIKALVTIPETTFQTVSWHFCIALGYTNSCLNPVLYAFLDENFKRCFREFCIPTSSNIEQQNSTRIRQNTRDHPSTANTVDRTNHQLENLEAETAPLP

[4] = U-2 OS cells, read-out: GTPγS κ EC50
[5] = U-2 OS cells, relative to U69,593
[6] = U-2 OS cells, read-out: GTPγS μ EC50
[7] = U-2 OS cells, read-out: GTPγS μ Emax
[8] = U-2 OS cells, bound in μM, read-out: GTPγS κ EC50
[9] = U-2 OS cells, bound in μM, read-out: GTPγS μ EC50
[10] = GTPγS μ EC50, U-2 OS cells, bound in μM
[11] = read-out: GTPγS μ Emax, U-2 OS cells

T1 sequence (P41145 whole entry): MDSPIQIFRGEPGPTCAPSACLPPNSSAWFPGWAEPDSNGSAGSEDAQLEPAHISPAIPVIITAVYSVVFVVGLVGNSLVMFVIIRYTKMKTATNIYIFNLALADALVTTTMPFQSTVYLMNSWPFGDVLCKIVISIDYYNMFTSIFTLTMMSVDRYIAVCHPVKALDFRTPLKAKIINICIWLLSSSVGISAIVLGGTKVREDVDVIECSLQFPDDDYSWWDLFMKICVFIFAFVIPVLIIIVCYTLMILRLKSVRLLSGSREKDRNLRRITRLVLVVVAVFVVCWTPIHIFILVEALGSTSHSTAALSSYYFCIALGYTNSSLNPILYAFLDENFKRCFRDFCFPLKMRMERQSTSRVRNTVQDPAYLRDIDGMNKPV

Structure (SMILES)	EC50 [2, 4]	Emax [2, 5]	EC50 [3, 6]	Emax [3, 7]	other results
CCOC(=O)/C=C1\C2Cc3ccc(OC)cc3C1(C)CCN2C (centres unmarked) [Compound 12]	–	–	–	–	Ki [1]: > 20 µM
CN(C(=O)Nc1ccc(C(C)(C)C)cc1)[C@@H]1[C@H]2Cc3ccc(O)cc3[C@]1(C)CCN2CC1CC1 [Compound 133, 3-(4-(tert-butyl)phenyl)-1-((2R,6S,11S)-3-(cyclopropylmethyl)-8-hydroxy-6-methyl-1,2,3,4,5,6-hexahydro-2,6-methanobenzo[d]azocin-11-yl)-1-methylurea]	21.7 ± 3.16 nM	42 ± 4.02%	0.0039 ± 0.00074 µM	22.3 ± 1.2%	–
CN1CC[C@@]2(C)c3cc(O)ccc3C[C@@H]1[C@H]2NCCc1ccncc1 [Compound 103, (2R,6S,11S)-3,6-dimethyl-11-((2-(pyridin-4-yl)ethyl)amino)-1,2,3,4,5,6-hexahydro-2,6-methanobenzo[d]azocin-8-ol]	287 ± 62 nM	83 ± 8.02%	0.117 ± 0.00282 µM	77.5 ± 1.26%	–
CN1CC[C@@]2(C)c3cc(O)ccc3C[C@@H]1[C@@H]2NCC1CCN(C(=O)OC(C)(C)C)CC1 [Compound 107, tert-butyl 4-((((2R,6S,11R)-8-hydroxy-3,6-dimethyl-1,2,3,4,5,6-hexahydro-2,6-methanobenzo[d]azocin-11-yl)amino)methyl)piperidine-1-carboxylate]	–	1%	0.0462 ± 0.00035 µM	–	EC50 [2, 8]: > 20000 nM; GTPγS μ Emax ([3]; U-2 OS cells): 58.30 ± 0.33%
C[C@]12CCN(CC3CC3)[C@H](Cc3ccc(O)cc31)[C@H]2NCC1CCNCC1 [Compound 102, (2R,6S,11S)-3-(cyclopropylmethyl)-6-methyl-11-((piperidin-4-ylmethyl)amino)-1,2,3,4,5,6-hexahydro-2,6-methanobenzo[d]azocin-8-ol]	–	-1%	–	2.5%	EC50 [2, 8]: > 20000 nM; EC50 [3, 9]: > 20 µM
CN1CC[C@@]2(C)c3cc(O)ccc3C[C@@H]1[C@@H]2NC(=O)Nc1nc2cc(F)ccc2s1 [Compound 139, 1-(5-fluorobenzo[d]thiazol-2-yl)-3-((2R,6S,11R)-8-hydroxy-3,6-dimethyl-1,2,3,4,5,6-hexahydro-2,6-methanobenzo[d]azocin-11-yl)urea]	91.8 ± 4.88 nM	48 ± 5.13%	0.0125 ± 0.00218 µM	87 ± 3.08%	–
CCC[C@@]12CCN(C)C(Cc3ccc(OC)cc31)[C@H]2N(C)C(=O)Nc1ccc(CN)cc1 [Compound 138, 3-(4-(aminomethyl)phenyl)-1-((6R,11S)-8-methoxy-3-methyl-6-propyl-1,2,3,4,5,6-hexahydro-2,6-methanobenzo[d]azocin-11-yl)-1-methylurea]	–	35.5 ± 2.06%	–	45.3 ± 2.33%	EC50 [2, 8]: > 20000 nM; EC50 [3, 9]: > 20 µM
CN1CC[C@@]2(C)c3cc(O)ccc3C[C@@H]1[C@H]2N(C)C(=O)C1CCCCC1 [Compound 120, N-((2R,6S,11S)-8-hydroxy-3,6-dimethyl-1,2,3,4,5,6-hexahydro-2,6-methanobenzo[d]azocin-11-yl)-N-methylcyclohexanecarboxamide]	2860 ± 231 nM	62.3 ± 4.91%	2.94 ± 0.481 µM	76.3 ± 3.48%	–
COc1ccc(CCN[C@H]2[C@H]3Cc4ccc(O)cc4[C@]2(C)CCN3C)cc1 [Compound 100, (2R,6S,11R)-11-((4-methoxyphenethyl)amino)-3,6-dimethyl-1,2,3,4,5,6-hexahydro-2,6-methanobenzo[d]azocin-8-ol]	1760 ± 364 nM	45 ± 2.08%	0.04 ± 0.00325 µM	102 ± 1.45%	–
CN1CC[C@@]2(C)c3cc(O)ccc3C[C@@H]1[C@H]2NCC1CCN(C(=O)OC(C)(C)C)CC1 [Compound 106, tert-butyl 4-((((2R,6S,11S)-8-hydroxy-3,6-dimethyl-1,2,3,4,5,6-hexahydro-2,6-methanobenzo[d]azocin-11-yl)amino)methyl)piperidine-1-carboxylate]	–	–	–	–	EC50 [2]: > 20000 nM; Emax [2]: 1%; EC50 [3, 10]: > 20 µM; Emax [3, 11]: 2.5%
C[C@]12CCN(CC3CC3)[C@H](Cc3ccc(O)cc31)[C@@H]2NC(=O)c1ccsc1 [Compound 127, N-((2R,6S,11R)-3-(cyclopropylmethyl)-8-hydroxy-6-methyl-1,2,3,4,5,6-hexahydro-2,6-methanobenzo[d]azocin-11-yl)thiophene-3-carboxamide]	–	–	–	–	EC50 [2]: 947 ± 68 nM; Emax [2]: 93 ± 3.51%; EC50 [3, 10]: > 20 µM; Emax [3, 11]: 3.67 ± 1.2%
CN1CC[C@@]2(C)c3cc(O)ccc3C[C@@H]1[C@H]2N(C)S(=O)(=O)c1cccc(C(F)(F)F)c1 [Compound 131, N-((2R,6S,11S)-8-hydroxy-3,6-dimethyl-1,2,3,4,5,6-hexahydro-2,6-methanobenzo[d]azocin-11-yl)-N-methyl-3-(trifluoromethyl)benzenesulfonamide]	–	0%	0.29 ± 0.00532 µM	69 ± 1%	EC50 [2, 8]: > 20000 nM
CN1CC[C@@]2(C)c3cc(O)ccc3C[C@@H]1[C@@H]2N(C)S(=O)(=O)c1cccc(C(F)(F)F)c1 [Compound 132, N-((2R,6S,11R)-8-hydroxy-3,6-dimethyl-1,2,3,4,5,6-hexahydro-2,6-methanobenzo[d]azocin-11-yl)-N-methyl-3-(trifluoromethyl)benzenesulfonamide]	11.4 ± 1.58 nM	89 ± 5.69%	0.00303 ± 0.00017 µM	95.3 ± 2.6%	–
C[C@]12CCN(CC3CC3)[C@H](Cc3ccc(O)cc31)[C@H]2NC(=O)c1ccsc1 [Compound 113, N-((2R,6S,11S)-3-(cyclopropylmethyl)-8-hydroxy-6-methyl-1,2,3,4,5,6-hexahydro-2,6-methanobenzo[d]azocin-11-yl)thiophene-3-carboxamide]	0.052 ± 0.013 nM	99.2 ± 1.65%	0.00045 ± 3.6e-05 µM	68.7 ± 3.71%	–
C[C@]12CCN(CC3CC3)[C@H](Cc3ccc(O)cc31)[C@H]2NCCc1ccc(S(N)(=O)=O)cc1 [Compound 97, 4-(2-(((2R,6S,11S)-3-(cyclopropylmethyl)-8-hydroxy-6-methyl-1,2,3,4,5,6-hexahydro-2,6-methanobenzo[d]azocin-11-yl)amino)ethyl)benzenesulfonamide]	–	0%	–	2.5%	EC50 [2, 8]: > 20000 nM; EC50 [3, 9]: > 20 µM
CN1CC[C@@]2(C)c3cc(O)ccc3C[C@@H]1[C@@H]2N(C)C(=O)Cc1ccsc1 [Compound 123, N-((2R,6S,11R)-8-hydroxy-3,6-dimethyl-1,2,3,4,5,6-hexahydro-2,6-methanobenzo[d]azocin-11-yl)-N-methyl-2-(thiophen-3-yl)acetamide]	–	–	–	–	EC50 [2]: 113 ± 5.8 nM; Emax [2]: 74 ± 3.06%; Emax [3, 11]: 104 ± 3.06%
C[C@]12CCN(CC3CC3)[C@H](Cc3ccc(O)cc31)[C@@H]2NCCc1ccc(S(N)(=O)=O)cc1 [Compound 96, 4-(2-(((2R,6S,11R)-3-(cyclopropylmethyl)-8-hydroxy-6-methyl-1,2,3,4,5,6-hexahydro-2,6-methanobenzo[d]azocin-11-yl)amino)ethyl)benzenesulfonamide]	6.41 ± 1.67 nM	–	0.00601 ± 0.00051 µM	32.3 ± 0.88%	–
CN1CC[C@@]2(C)c3cc(O)ccc3C[C@@H]1[C@H]2N(C)C(=O)c1ccsc1 [Compound 125, N-((2R,6S,11S)-8-hydroxy-3,6-dimethyl-1,2,3,4,5,6-hexahydro-2,6-methanobenzo[d]azocin-11-yl)-N-methylthiophene-3-carboxamide]	443 ± 73.2 nM	102 ± 5.69%	2.62 ± 0.396 µM	70.7 ± 2.33%	–
CN1CC[C@@]2(C)c3cc(O)ccc3C[C@@H]1[C@@H]2N(C)C(=O)Cc1ccccc1 [Compound 118, N-((2R,6S,11R)-8-hydroxy-3,6-dimethyl-1,2,3,4,5,6-hexahydro-2,6-methanobenzo[d]azocin-11-yl)-N-methyl-2-phenylacetamide]	90.8 ± 7.63 nM	75.2 ± 4.33%	0.00132 ± 4e-05 µM	101 ± 2.52%	–
CN1CC[C@@]2(C)c3cc(O)ccc3C[C@@H]1[C@@H]2N(C)CC1CCN(C(=O)OC(C)(C)C)CC1 [Compound 108, tert-butyl 4-((((2R,6S,11R)-8-hydroxy-3,6-dimethyl-1,2,3,4,5,6-hexahydro-2,6-methanobenzo[d]azocin-11-yl)(methyl)amino)methyl)piperidine-1-carboxylate]	3.27 ± 0.69 nM	18.8 ± 1.25%	0.00039 ± 0.00011 µM	–	GTPγS μ Emax ([3]; U-2 OS cells): 80.80 ± 2.50%
CN1CC[C@@]2(C)c3cc(O)ccc3C[C@@H]1[C@H]2N(C)C(=O)c1ccc(C(F)(F)F)cn1 [Compound 126, N-((2R,6S,11S)-8-hydroxy-3,6-dimethyl-1,2,3,4,5,6-hexahydro-2,6-methanobenzo[d]azocin-11-yl)-N-methyl-5-(trifluoromethyl)picolinamide]	1470 ± 91.3 nM	63.7 ± 3.93%	0.147 ± 0.00947 µM	103 ± 2.4%	–
CN1CC[C@@]2(C)c3cc(O)ccc3C[C@@H]1[C@@H]2N(C)C(=O)c1ccsc1 [Compound 124, N-((2R,6S,11R)-8-hydroxy-3,6-dimethyl-1,2,3,4,5,6-hexahydro-2,6-methanobenzo[d]azocin-11-yl)-N-methylthiophene-3-carboxamide]	680 ± 67.7 nM	77.3 ± 4.63%	0.0141 ± 0.00048 µM	98 ± 3.06%	–
CN1CC[C@@]2(C)c3cc(O)ccc3C[C@@H]1[C@@H]2NCCc1ccc(F)cc1 [Compound 101, (2R,6S,11R)-11-((4-fluorophenethyl)amino)-3,6-dimethyl-1,2,3,4,5,6-hexahydro-2,6-methanobenzo[d]azocin-8-ol]	–	66.7 ± 1.2%	–	–	EC50 [2]: 1080 ± 113 nM; EC50 ([3]; GTPγS μ EC50, U-2 OS cells): 0.00373 ± 0.00021 µM
